Measurements from patent publication EP1087941B9, “THIOLESTERS AND USES THEREOF” (THE UNITED STATES OF AMERICA, as represented by THE …, priority 1998, dated 1999).

Tests used:
[1] = molecular target: T1, recombinant HIV-1 integrase (Human immunodeficiency virus type 1 group M subtype B, UniProt P03366); experiment: Integrase 3' processing and strand transfer assay; type: biochemical; conditions: for IC50: Table 7, high dose test of 100 µM, read-out: Integrase I50
T1 construct: The ability of recombinant HIV-1 integrase; S. Hughes, ABL Basic Research NCI-FCRDC, Frederick MD (supplied, not a catalogue product)
Procedure: The 5-bromovaleroyl thioester, compound 44, and two 5-pyridiniovaleroyl thioesters, compounds 45 and 47, were analyzed in mechanistic and target-based assays. […] Assays for activity against HIV-1 reverse transcriptase rAdT (template/primer) and rCdG (template/primer) using recombinant HIV-1 reverse transcriptase (S. Hughes, ABL Basic Research NCI-FCRDC, Frederick MD) were performed as described by Rice (1997) supra. Substrate cleavage of recombinant HIV-1 protease in the presence of test compounds using an HPLC-based methodology with the artificial substrate Ala-Ser-Glu-Asn-Try- Pro-Ile-Val-amide (Multiple Peptide Systems, San Diego CA) was performed as described by Rice (1997) supra. The ability of recombinant HIV-1 integrase (S. Hughes, ABL Basic Research NCI-FCRDC, Frederick MD) to carry out 3' processing and strand transfer activities in the presence of test compounds was performed as described by Buckheit (1994) AIDS Res. Hum. Retroviruses 10:1497-1506, and Turpin (1998) Antimicrob. Agents Chemother. 42: 487-494.

NCp7 = molecular target: T2, NCp7 (Human immunodeficiency virus type 1 group M subtype B, UniProt P03347); experiment: NCp7 binding to packaging-site oligonucleotide, electrophoretic mobility shift assay; type: biochemical, HIV-1; conditions: for concentration at which NCp7-oligonucleotide complex formation was inhibited: EMSA on nondenaturing polyacrylamide gels; for IC50: Table 9, read-out: Nucleic Acid Binding (I50 µM)
T2 construct: within the nucleocapsid p7 (NCp7) protein portion of the polyprotein
Procedure: Zinc finger reactivity was measured using a Zn specific fluorochrome, TSQ, N-(6-methoxy-8-quinolyl) -p-toluenesulfonamide, assay or a Trp37 zinc finger fluorescence assay. Fluorescent measurements of the Trp37 residue in the C-terminal finger of recombinant HIV-1 NCp7 protein were performed as described by Rice (1995) Science 270:1194-1197; Rice (1997) Antimicrob. Agents Chemother. 41:419-426. Measurement of Zn ejection from both fingers was measured using the Zn-selective fluorchrome probe TSQ (Molecular Probes, Eugene OR) as described by Rice (1996) J. Med. Chem 39:3606-3616. Measurement of the ability of NCp7 to bind to a DNA oligomer, a 44 mer: GGCGACTGGTGAGTACGCCAAAAATTTTGACTAGCGGAGGCTAG (SEQ ID NO:1), analogous to the HIV-1 RNA packaging site was carried out as described by Huang (1998) J. Med. Chem. 41:1371-1381, see also, Rossio (1998) HIV Pathogenesis and Treatment: Keystone Symposium on Molecular and Cellular Biology, Abstract # 4082. Briefly, 50 nM NCp7 was treated with test compounds for 1 hour at RT in […] buffer containing 10% glycerol and 50 mM Tris-HCl (pH 7.5). Labeled oligomer (0.1 picomole, end labeled [^32P]) was added in an equal volume of buffer containing 10% glycerol, 50 mM Tris-HCl (pH 7.5), 400 mM KCl and 40 mM MgCl2. The reaction was continued for 15 min at room temperature, and a total of […] (or 1/4 of the total reaction volume) was separated on nondenaturing 4.5% polyacrylamide gels in 0.5X Tris-Borate electrophoresis buffer. NCp7-oligomer complexes were visualized by autoradiography.
Interaction of zinc finger inhibitors with NCp7 can result in loss of protein structure and their ability to specifically bind oligonucleotides representing the HIV-1ψ packaging site (Huang (1998) supra; Tummino (1997) Antimicrob. Agents Chemother. 41:394-400; South (1993) Protein Sci. 2:3-19; Dannull (1994) EMBO J. 13:1525-1533). The ability of NCp7 to specifically associate with these oligonucleotides after treatment of the protein with a thiolester of the invention was tested. For example, compounds 44, 45 or 47 were very effective at inhibiting Ncp7's ability to associate with target oligonucleotide, as determined using electrophoretic mobility shift assays (EMSA) on nondenaturing polyacrylamide gels. At 1 µM, compound 45 inhibited complex formation. Compounds 44 and 47 inhibited complex formation at 100 µM (see Table 9).

**Q.** What does the source list for CC(=O)NS(=O)(=O)c1ccc(NC(=O)c2ccccc2SC(=O)CCCCBr)cc1 [Compound 44, N-[2-(5-bromovaleroylthio)benzoyl]sulfacetamide]?
**A.** inhibition of HIV-1 integrase enzyme activity [1]: did not inhibit; IC50 [1]: > 100 µM; concentration at which NCp7-oligonucleotide complex formation was inhibited (NCp7): 100 µM; IC50 (NCp7): 100 µM

**Q.** How did the “inhibition of HIV-1 integrase enzyme activity” value [1] turn out when CC(=O)NS(=O)(=O)c1ccc(NC(=O)c2ccccc2SC(=O)CCCC[n+]2ccccc2)cc1 [Compound 45, N-[2-(5-pyridinio-valeroylthio)benzoyl]sulfacetamide bromide] was run?
**A.** did not inhibit

**Q.** What about the IC50 [1] of the same molecule?
**A.** > 100 µM

**Q.** And the “concentration at which NCp7-oligonucleotide complex formation was inhibited” value (NCp7)?
**A.** 1 µM

**Q.** What about the IC50 (NCp7) of the same molecule?
**A.** 1 µM

**Q.** O=C(CCCC[n+]1ccccc1)Sc1ccccc1C(=O)Nc1ccc(S(=O)(=O)c2ccc([N+](=O)[O-])cc2)cc1 [Compound 47] was tested. Which “inhibition of HIV-1 integrase enzyme activity” value [1] did it give?
**A.** did not inhibit

**Q.** What about the “concentration at which NCp7-oligonucleotide complex formation was inhibited” value (NCp7) of the same molecule?
**A.** 100 µM
